In US8283352B2, “Solubilization preparation” (Dainippon Sumitomo Pharma Co., Ltd., priority 2005, dated 2012):
Where a name gives a salt, the structure may show the parent alone.

Tests used:
Assay type in all cases: physicochemical
Solubility in water = test: Solubility in water
[1] = Solubility of lurasidone or a free form thereof in additives (Table 1), visual check; settings: for solubility at 30 min: thermodynamic from solid
Procedure: Solid-type additives were studied in 10% aqueous solutions thereof and liquid-type ones were studied in 100% solutions thereof. Specifically, to 10% aqueous solution of solid-type additive or to 100% solution of liquid-type one was added lurasidone or a free form thereof so that a concentration thereof was 10 mg/mL, and the mixture was promoted to be dissolved by an operation such as stirring, heating or sonication. It was confirmed by visual check 30 minutes after the operation whether the mixture was perfectly dissolved. In case that the mixture was perfectly dissolved in a concentration of 10 mg/mL, another amount of lurasidone or a free form thereof was added to be evaluated.

[2] = Storage stability of 30 mg/mL solutions, residual ratio by reverse phase HPLC (Table 2); settings: aqueous solutions using benzyl alcohol, propylene glycol, N,N-dimethylacetamide and lactic acid; one-month storage at 60° C. and 40° C.
Procedure: Solutions comprising lurasidone and a hydrochloride thereof in a concentration of 30 mg/mL were prepared in formulations in Table 2 to be stored under warming conditions (60° C. and 40° C.). After one-month storage, a residual ratio of principal agent was measured by using reverse phase HPLC. […] In other words, the present invention can provide a solution-type preparation with high stability wherein lurasidone and a free form thereof are solubilized at high concentrations.
Column: YMC-Pack AM-312 (5 μm, 6.0 mmφ×150 mm, manufactured by YMC Co., Ltd.)
Detector: ultraviolet absorptiometer (measured wavelength: 230 nm)
Column temperature: constant temperature around 25° C.
Solution A: 0.025% aqueous trifluoroacetic acid solution/acetonitrile mixture (4:1)
Solution B: 0.025% trifluoroacetic acid in acetonitrile solution

O=C1[C@@H]2[C@H]3CC[C@H](C3)[C@@H]2C(=O)N1C[C@@H]1CCCC[C@H]1CN1CCN(c2nsc3ccccc23)CC1 [Lurasidone, N-[4-[4-(1,2-benzisothiazol-3-yl)-1-piperazinyl]-(2R,3R)-2,3-tetramethylene-butyl]-(1′R,2′S,3′R,4′S)-2,3-bicyclo[2,2,1]heptanedicarboxyimide hydrochloride]
solubility in water (Solubility in water): less than several | solubility at 30 min ([1]; aqueous buffer, additive No. 8: Sodium hydrogen carbonate): < 10 mg/mL | solubility at 30 min ([1]; aqueous with cosolvent or surfactant or cyclodextrin, additive No. 1: Citric acid): < 10 mg/mL | solubility at 30 min ([1]; aqueous with cosolvent or surfactant or cyclodextrin, additive No. 2: Sodium citrate): < 10 mg/mL | solubility at 30 min ([1]; aqueous with cosolvent or surfactant or cyclodextrin, additive No. 3: L-Aspartic acid): < 10 mg/mL | solubility at 30 min ([1]; aqueous with cosolvent or surfactant or cyclodextrin, additive No. 4: L-Arginine): < 10 mg/mL | solubility at 30 min ([1]; aqueous with cosolvent or surfactant or cyclodextrin, additive No. 5: Soy lecithin): < 10 mg/mL | solubility at 30 min ([1]; aqueous with cosolvent or surfactant or cyclodextrin, additive No. 6: Polysorbate 80): < 10 mg/mL | solubility at 30 min ([1]; aqueous with cosolvent or surfactant or cyclodextrin, additive No. 7: D-Mannitol): < 10 mg/mL | solubility at 30 min ([1]; aqueous with cosolvent or surfactant or cyclodextrin, additive No. 9: β-Cyclodextrin): < 10 mg/mL | solubility at 30 min ([1]; aqueous with cosolvent or surfactant or cyclodextrin, additive No. 10: Maleic acid): < 10 mg/mL | solubility at 30 min ([1]; aqueous with cosolvent or surfactant or cyclodextrin, additive No. 12: Calcium bromide): < 10 mg/mL | solubility at 30 min ([1]; aqueous with cosolvent or surfactant or cyclodextrin, additive No. 13: Ethylene diamine hydrochloride): < 10 mg/mL | solubility at 30 min ([1]; aqueous with cosolvent or surfactant or cyclodextrin, additive No. 14: Tris): < 10 mg/mL | solubility at 30 min ([1]; aqueous with cosolvent or surfactant or cyclodextrin, additive No. 16: Nicotinic amide): < 10 mg/mL | solubility at 30 min ([1]; aqueous with cosolvent or surfactant or cyclodextrin, additive No. 17: Capric acid): < 10 mg/mL | solubility at 30 min ([1]; oil or lipid, additive No. 11: Ethyl oleate): < 10 mg/mL | solubility at 30 min ([1]; oil or lipid, additive No. 21: Squalane): < 10 mg/mL | solubility at 30 min ([1]; oil or lipid, additive No. 22: Medium-chain triglyceride): < 10 mg/mL | solubility at 30 min ([1]; oil or lipid, additive No. 46: Sesame oil): 1 to 10 mg/mL | solubility at 30 min ([1]; oil or lipid, additive No. 47: Castor oil): 1 to 10 mg/mL | solubility at 30 min ([1]; oil or lipid, additive No. 49: Arachis oil): 1 to 10 mg/mL | solubility at 30 min ([1]; oil or lipid, additive No. 50: Camellia oil): 1 to 10 mg/mL | solubility at 30 min ([1]; oil or lipid, additive No. 51: Soybean oil): 1 to 10 mg/mL | solubility at 30 min ([1]; oil or lipid, additive No. 52: Olive oil): < 1 mg/mL | solubility at 30 min ([1]; organic solvent or mixture, additive No. 15: Polyethylene glycol 400): < 10 mg/mL | solubility at 30 min ([1]; organic solvent or mixture, additive No. 18: Concentrated glycerin): < 10 mg/mL | solubility at 30 min ([1]; organic solvent or mixture, additive No. 19: Propylene glycol): 30 to 100 mg/mL | solubility at 30 min ([1]; organic solvent or mixture, additive No. 20: Lactic acid): > 100 mg/mL | solubility at 30 min ([1]; organic solvent or mixture, additive No. 30: Benzyl alcohol): > 200 mg/mL | stability in aqueous solutions (in words) [2]: stable

O=C1[C@@H]2[C@H]3CC[C@H](C3)[C@@H]2C(=O)N1C[C@@H]1CCCC[C@H]1CN1CCN(c2nsc3ccccc23)CC1 [A free form of lurasidone, N-[4-[4-(1,2-benzisothiazol-3-yl)-1-piperazinyl]-(2R,3R)-2,3-tetramethylene-butyl]-(1′R,2′S,3′R,4′S)-2,3-bicyclo[2,2,1]heptane-dicarboxyimide]
Solubility ([1]; additive No. 21: Squalane): <10 mg/mL | Solubility ([1]; additive No. 22: Medium-chain triglyceride): <10 mg/mL | Solubility ([1]; additive No. 23: Benzyl benzoate): <10 mg/mL | Solubility ([1]; additive No. 24: Anhydrous ethanol): <10 mg/mL | Solubility ([1]; additive No. 25: Sorbitan sesquioleate): <10 mg/mL | Solubility ([1]; additive No. 26: 1,3-Butanediol): <10 mg/mL | Solubility ([1]; additive No. 27: Dipropylene glycol): <10 mg/mL | Solubility ([1]; additive No. 28: Triethyleneglycol): <10 mg/mL | Solubility ([1]; additive No. 29: Isopropyl alcohol): <10 mg/mL | Solubility ([1]; additive No. 32: Isopropyl myristate): <10 mg/mL | Solubility ([1]; additive No. 34: Monoethanolamine): <10 mg/mL | Solubility ([1]; additive No. 35: Diethanolamine): <10 mg/mL | Solubility ([1]; additive No. 36: Triethanolamine): <10 mg/mL | Solubility ([1]; additive No. 37: Liquid paraffin): <10 mg/mL | Solubility ([1]; additive No. 38: Toluene): >50 mg/mL | Solubility ([1]; additive No. 41: N-Methyl-2-pyrrolidone): >50 mg/mL | Solubility ([1]; additive No. 42: Glycol salicylate): <10 mg/mL | Solubility ([1]; additive No. 44: Triacetin): <10 mg/mL | Solubility ([1]; additive No. 46: Sesame oil): <10 mg/mL | Solubility ([1]; additive No. 47: Castor oil): <10 mg/mL | Solubility ([1]; additive No. 49: Arachis oil): <10 mg/mL | Solubility ([1]; additive No. 50: Camellia oil): <10 mg/mL | Solubility ([1]; additive No. 51: Soybean oil): <10 mg/mL | Solubility ([1]; additive No. 52: Olive oil): <10 mg/mL
